Data taken from PMC9919983, “Screening Evaluation of Antiproliferative, Antimicrobial and Antioxidant Activity of Lichen Extracts and Secondary Metabolites In Vitro” (Plants, 2023).
pIC50: −log10 of the molar value.

How the values were obtained:
[1] = parameters: method as in PMID 35448805; conditions: pure compounds, compared to ascorbic acid; cited from earlier work
[2] = system: Staphyloccocus aureus CCM 4223; test: Agar well-diffusion method; assay type: cell-based; conditions: pure compound 0.57 mM
[3] = DPPH radical scavenging assay; conditions: 30 min, absorbance 517 nm
Protocol: The free radical scavenging activity of lichen extracts was measured using 1,1-diphenyl-2-picryl-hydrazil (DPPH). The antioxidant activity via this method is described in several studies and here it is slightly modified. The extracts were dissolved in a small amount of pure DMSO and then filled with distilled water to a concentration of 1 mg/mL. In addition, 10 μL of 5% NaOH solution was added to help dissolve the extracts fully. Stock solutions were subsequently diluted to the desired concentrations. The reaction mixture consisted of 2 mL of DPPH methanolic solution (0.1 mM) and 1 mL of our extracts to reach a final volume of 3 mL. The samples were incubated at laboratory temperature in the dark for 30 min. After the incubation, the absorbance of the samples was measured at 517 nm in a spectrophotometer (multi-detection microplate reader; Synergy HT, BioTek, Winooski, VT, USA). Ascorbic acid was used as positive control. A solution of 5% DMSO (1 mL) in MeOH (2 mL) was used as a blank control. The DPPH radical concentration was calculated by the equation:Free radical scavenging activity (%) = [(A0 − A1)/A)] × 100(2) where A0 was the absorbance of negative control and A1 was the absorbance of the reaction mixture of our samples.

COS-7 [4] = test: Resazurin screening assay, 2D culture; assay type: cell-based; conditions: COS-7 (Kidney Fibroblasts), non-cancerous, 72 h, secondary metabolites and cisplatin
Protocol: (§1) All experiments were performed in triplicate.

HCT116 [5] = test: Resazurin screening assay, 2D culture; assay type: cell-based, human; conditions: HCT116 (Colon), 72 h, secondary metabolites and cisplatin
Protocol: as §1

BLM [6] = test: Resazurin screening assay, 2D culture; assay type: cell-based, human; conditions: BLM (Melanoma), 72 h, secondary metabolites and cisplatin
Protocol: as §1

BJ-5ta [7] = test: Resazurin screening assay, 2D culture; assay type: cell-based, human; conditions: BJ-5ta (Skin Fibroblasts), non-cancerous, 72 h, secondary metabolites and cisplatin
Protocol: as §1

HeLa [8] = test: Resazurin screening assay, 2D culture; assay type: cell-based, human; conditions: HeLa (Cervix), 72 h, secondary metabolites and cisplatin
Protocol: as §1

MCF-7 [9] = test: Resazurin screening assay, 2D culture; assay type: cell-based, human; conditions: MCF-7 (Breast ER+), 72 h, secondary metabolites and cisplatin
Protocol: as §1

MDA-MB-231 [10] = test: Resazurin screening assay, 2D culture; assay type: cell-based, human; conditions: MDA-MB-231 (Breast ER−), 72 h, secondary metabolites and cisplatin
Protocol: as §1

MCF-10A [11] = test: Resazurin screening assay, 2D culture; assay type: cell-based, human; conditions: MCF-10A (Breast Epithelial), non-cancerous, 72 h, secondary metabolites and cisplatin
Protocol: as §1

A2780 [12] = test: Resazurin screening assay, 2D culture; assay type: cell-based, human; conditions: A2780 (Ovarian), 72 h, secondary metabolites and cisplatin
Protocol: as §1

A549 [13] = test: Resazurin screening assay, 2D culture; assay type: cell-based, human; conditions: A549 (Lung), 72 h, secondary metabolites and cisplatin
Protocol: as §1

COS-7 [14] = test: Resazurin screening assay, 3D spheroids; assay type: cell-based; conditions: COS-7 (Kidney Fibroblasts), non-cancerous, 72 h, secondary metabolites and cisplatin
Protocol: as §1

HCT116 [15] = test: Resazurin screening assay, 3D spheroids; assay type: cell-based, human; conditions: HCT116 (Colon), 72 h, secondary metabolites and cisplatin
Protocol: as §1

BLM [16] = test: Resazurin screening assay, 3D spheroids; assay type: cell-based, human; conditions: BLM (Melanoma), 72 h, secondary metabolites and cisplatin
Protocol: as §1

BJ-5ta [17] = test: Resazurin screening assay, 3D spheroids; assay type: cell-based, human; conditions: BJ-5ta (Skin Fibroblasts), non-cancerous, 72 h, secondary metabolites and cisplatin
Protocol: as §1

HeLa [18] = test: Resazurin screening assay, 3D spheroids; assay type: cell-based, human; conditions: HeLa (Cervix), 72 h, secondary metabolites and cisplatin
Protocol: as §1

MCF-7 [19] = test: Resazurin screening assay, 3D spheroids; assay type: cell-based, human; conditions: MCF-7 (Breast ER+), 72 h, secondary metabolites and cisplatin
Protocol: as §1

MDA-MB-231 [20] = test: Resazurin screening assay, 3D spheroids; assay type: cell-based, human; conditions: MDA-MB-231 (Breast ER−), 72 h, secondary metabolites and cisplatin
Protocol: as §1

MCF-10A [21] = test: Resazurin screening assay, 3D spheroids; assay type: cell-based, human; conditions: MCF-10A (Breast Epithelial), non-cancerous, 72 h, secondary metabolites and cisplatin
Protocol: as §1

Jurkat [22] = test: Resazurin screening assay, 3D spheroids; assay type: cell-based, human; conditions: Jurkat (Leukemia), 72 h, secondary metabolites and cisplatin
Protocol: as §1

A2780 [23] = test: Resazurin screening assay, 3D spheroids; assay type: cell-based, human; conditions: A2780 (Ovarian), 72 h, secondary metabolites and cisplatin
Protocol: as §1

A549 [24] = test: Resazurin screening assay, 3D spheroids; assay type: cell-based, human; conditions: A549 (Lung), 72 h, secondary metabolites and cisplatin
Protocol: as §1

Jurkat [25] = test: Resazurin screening assay, 2D suspension culture; assay type: cell-based, human; conditions: Jurkat (Leukemia), 72 h, secondary metabolites and cisplatin
Protocol: as §1

For `COC(=O)c1c(C)cc(OC(=O)c2c(C)cc(O)c(C=O)c2O)c(C)c1O` [A, atranorin], the “free radical scavenging activity in DPPH assay (in words)” value (from here on “free radical scavenging activity”) [1] is listed as “None of the tested compounds showed notable free radical scavenging activity”.
For `CCCCCC(=O)Cc1cc(O)cc2c1C(=O)Oc1cc(O)c(C(=O)O)c(CCCCC)c1O2` [Phy, physodic acid], the “effectiveness among the chosen secondary metabolites (in words)” value [2] is listed as “most effective”, the “% RIZD S. aureus” value ([2]; relative inhibition zone diameter vs gentamicin 50 µg/mL) is listed as 118.78% and the “free radical scavenging activity” value [1] is listed as “None of the tested compounds showed notable free radical scavenging activity”.
For `O=C1O[C@H]([C@@H](O)CO)C(O)=C1O` [Ascorbic acid], the “IC50 by DPPH radical scavenging assay” value [3] was 7.7 ± 0.4 µg/mL.
For `Cc1cc(OC(=O)c2c(C)cc(OC(=O)c3c(C)cc(O)cc3O)cc2O)cc(O)c1C(=O)O` [GA, gyrophoric acid], the “free radical scavenging activity” value [1] is listed as “None of the tested compounds showed notable free radical scavenging activity”.
For `COc1cc(C)c(C(=O)Oc2cc(C)c(C(=O)O)c(O)c2)c(O)c1` [EA, evernic acid], the “free radical scavenging activity” value [1] is listed as “None of the tested compounds showed notable free radical scavenging activity”.
In the case of `N.N.[Cl][Pt][Cl]` [CisPt, cisplatin], the pIC50 (COS-7 [4]) was 4.61, the pIC50 (HCT116 [5]) was 5.13 and the pIC50 (BLM [6]) was 4.53. It also gave a pIC50 (BJ-5ta [7]) of 4.42, a pIC50 (HeLa [8]) of 4.45 and a pIC50 (MCF-7 [9]) of 4.53. It also gave a pIC50 (MDA-MB-231 [10]) of 5.15, a pIC50 (MCF-10A [11]) of 4.59 and a pIC50 (A2780 [12]) of 5.03. It also gave a pIC50 (A549 [13]) of 4.63, a pIC50 (COS-7 [14]) of 3.81 and a pIC50 (HCT116 [15]) of 4.01. It also gave a pIC50 (BLM [16]) of 4.05, a pIC50 (BJ-5ta [17]) of 3.73 and a pIC50 (HeLa [18]) of 4.11. The pIC50 (MCF-7 [19]) was 4.11, the pIC50 (MDA-MB-231 [20]) was 4.12 and the pIC50 (MCF-10A [21]) was 3.92. It also gave a pIC50 (Jurkat [22]) of 5.17, a pIC50 (A2780 [23]) of 3.87 and a pIC50 (A549 [24]) of 3.92. It also gave a pIC50 (Jurkat [25]) of 5.20.
